Laboratory results published in patent US9371319B2, “Pyrrolopyridineamino derivatives as MPS1 inhibitors” (priority 2011, dated 2016).

Target: T1, full length MPS1 (Homo sapiens, UniProt P33981)
T1 sequence (P33981 1-857): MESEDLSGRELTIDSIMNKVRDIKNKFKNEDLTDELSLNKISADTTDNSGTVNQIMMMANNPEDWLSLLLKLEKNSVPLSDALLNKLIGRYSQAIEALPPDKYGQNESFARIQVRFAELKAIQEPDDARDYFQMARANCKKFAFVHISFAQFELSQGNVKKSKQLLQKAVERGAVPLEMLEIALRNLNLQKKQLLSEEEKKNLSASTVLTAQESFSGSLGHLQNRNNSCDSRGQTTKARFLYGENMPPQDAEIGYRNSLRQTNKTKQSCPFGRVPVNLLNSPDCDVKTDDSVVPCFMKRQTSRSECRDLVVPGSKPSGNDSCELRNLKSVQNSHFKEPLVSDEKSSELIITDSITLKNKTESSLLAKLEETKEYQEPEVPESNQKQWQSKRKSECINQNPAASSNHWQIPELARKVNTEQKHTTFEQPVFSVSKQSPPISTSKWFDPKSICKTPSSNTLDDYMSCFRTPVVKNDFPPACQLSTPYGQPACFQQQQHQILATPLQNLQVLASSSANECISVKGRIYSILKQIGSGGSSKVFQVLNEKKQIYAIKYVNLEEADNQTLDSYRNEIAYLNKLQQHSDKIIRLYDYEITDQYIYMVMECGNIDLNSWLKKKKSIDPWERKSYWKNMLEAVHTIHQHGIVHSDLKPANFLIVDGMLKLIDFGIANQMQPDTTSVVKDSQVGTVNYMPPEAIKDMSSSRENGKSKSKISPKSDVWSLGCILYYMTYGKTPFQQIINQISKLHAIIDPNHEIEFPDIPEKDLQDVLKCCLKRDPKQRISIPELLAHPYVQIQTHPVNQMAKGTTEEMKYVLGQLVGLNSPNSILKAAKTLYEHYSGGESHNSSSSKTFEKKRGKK
Test: biochemical
Description: Measurement of Inhibition of MPS1 Kinase
(5 μM), ATP (10 μM), either DMSO (1% v/v) or the test compound (in the range 0.25 nM-100 μM in 1% DMSO) and assay buffer (50 mM HEPES (pH 7.0), 0.02% NaN3, 0.01% BSA, 0.1 mM Orthovandate, […], 1 μM DTT, Roche protease inhibitor). The reaction was carried out for 60 min at room temperature and stopped by the addition of buffer (10 μl) containing 20 mM EDTA, 0.05% (v/v) Brij-35, in 0.1M HEPES-buffered saline (Free acid, Sigma, UK). The plate was read on a Caliper EZ reader II (Caliper Life Sciences).
The % inhibition of the compounds is calculated relative to the means of selected control wells. […] The % inhibitions at each concentration are then fitted to a 4 parameter logistic fit: y=(a+((b−a)/(1+((c/x^d)))) where a=asym min, b=asym max, c=IC50 and d=hill coefficient

SMILES	IC50 [nM]
COCCNC(=O)c1ccc(Nc2cc3c(cn2)cc(-c2cnn(C)c2)n3C(=O)OC(C)(C)C)c(OC)c1 [Example 11]	9
CN(C)C(=O)c1ccc(Nc2cc3c(cn2)c(Cl)c(-c2cnn(C)c2)n3C(=O)OC(C)(C)C)c(Cl)c1 [Example 65]	127
CN(C)C(=O)c1ccc(Nc2cc3c(cn2)cc(-c2cnn(C)c2)n3CC2CC2)c(Cl)c1 [Example 66]	30
Cc1nn(C)cc1-c1ccc(Nc2cc3c(cn2)cc(-c2cnn(C)c2)n3C(=O)OC(C)(C)C)c(Cl)c1 [Example 21]	7
Cc1ncc(-c2ccc(Nc3cc4c(cn3)cc(-c3cnn(C)c3)n4C(=O)OC(C)(C)C)c(Cl)c2)n1C [Example 47]	5
Cn1cc(-c2cc3cnc(Nc4ccc(S(C)(=O)=O)cc4Cl)cc3n2C(=O)OC(C)(C)C)cn1 [Example 55]	24
Cn1cc(-c2cc3cnc(Nc4ccc(-c5nncn5C)cc4Cl)cc3n2C(=O)OC(C)(C)C)cn1 [Example 18]	1
CN(C)C(=O)c1ccc(Nc2cc3c(cn2)cc(-c2cnn(C)c2)n3Cc2ccc(F)cc2)c(Cl)c1 [Example 70]	38
CN(C)C(=O)c1ccc(Nc2cc3c(cn2)cc(-c2cnn(C)c2)n3CC2CCCCC2)c(Cl)c1 [Example 71]	67
Cn1cc(-c2ccc(Cl)c(Nc3cc4c(cn3)cc(-c3cnn(C)c3)n4C(=O)OC(C)(C)C)c2)cn1 [Example 62]	537
Cn1cc(-c2cc3cnc(Nc4ccc(-c5nccn5C)cc4Cl)cc3n2C(=O)OC(C)(C)C)cn1 [Example 22]	3
CN(C)C(=O)c1ccc(Nc2cc3c(cn2)cc(-c2cnn(C)c2)n3C2CCCC2)c(Cl)c1 [Example 73]	7
COc1cc(CN(C)C)ccc1Nc1cc2c(cn1)cc(-c1cnn(C)c1)n2C(=O)OC(C)(C)C [Example 35]	8
CC(C)OC(=O)n1c(-c2cnn(C)c2)cc2cnc(Nc3ccc(-c4cnn(C)c4)cc3Cl)cc21 [Example 76]	17
Cc1oncc1-c1ccc(Nc2cc3c(cn2)cc(-c2cnn(C)c2)n3C(=O)OC(C)(C)C)c(Cl)c1 [Example 23]	11
CN(C)C(=O)c1ccc(Nc2cc3c(cn2)cc(-c2cnn(C)c2)n3C(=O)OC2CCC2)c(Cl)c1 [Example 81]	3
Cc1c(-c2ccc(Nc3cc4c(cn3)cc(-c3cnn(C)c3)n4C(=O)OC(C)(C)C)c(Cl)c2)cnn1C [Example 20]	7
Cn1cc(-c2cc3cnc(Nc4ccc(-c5cncs5)cc4Cl)cc3n2C(=O)OC(C)(C)C)cn1 [Example 24]	9
Cc1ccc(-c2ccc(Nc3cc4c(cn3)cc(-c3cnn(C)c3)n4C(=O)OC(C)(C)C)c(Cl)c2)cn1 [Example 49]	9
CC(=O)c1ccccc1Nc1cc2c(cn1)cc(-c1cnn(C)c1)n2C(=O)OC(C)(C)C [Example 9]	77

Next, values leading:

IC50 [nM]	SMILES
69	Cn1cc(-c2[nH]c3cc(Nc4ccc(S(C)(=O)=O)cc4Cl)ncc3c2Cl)cn1 [Example 197, 3-Chloro-N-(2-chloro-4-(methylsulfonyl)phenyl)-2-(1-methyl-1H-pyrazol-4-yl)-1H-pyrrolo[3,2-c]pyridin-6-amine]
21	COC1CN(C(=O)c2ccc(Nc3cc4[nH]c(-c5cnn(C)c5)c(Cl)c4cn3)c(Cl)c2)C1 [Example 195, (3-chloro-4-(3-chloro-2-(1-methyl-1H-pyrazol-4-yl)-1H-pyrrolo[3,2-c]pyridin-6-ylamino)phenyl)(3-methoxyazetidin-1-yl)methanone]
6430	CS(=O)(=O)n1c(-c2cn[nH]c2)cc2cnc(Nc3ccc(F)cc3)cc21 [Example 187, N-(4-fluorophenyl)-1-(methylsulfonyl)-2-(1H-pyrazol-4-yl)-1H-pyrrolo[3,2-c]pyridin-6-amine]
31	CNCc1ccc(Nc2cc3[nH]c(-c4cnn(C)c4)cc3cn2)c(OC)c1 [Example 138, N-(2-methoxy-4-((methylamino)methyl)phenyl)-2-(1-methyl-1H-pyrazol-4-yl)-1H-pyrrolo[3,2-c]pyridin-6-amine]
11	CN(C)C(=O)c1ccc(Nc2cc3[nH]c(-c4cn[nH]c4)cc3cn2)cc1 [Example 168, 4-(2-(1H-Pyrazol-4-yl)-1H-pyrrolo[3,2-c]pyridin-6-ylamino)-N,N-dimethylbenzamide]
12	Cn1cc(-c2cc3cnc(Nc4ccc(C(=O)N5CCCC5)cc4Cl)cc3[nH]2)cn1 [Example 145, (3-Chloro-4-(2-(1-methyl-1H-pyrazol-4-yl)-1H-pyrrolo[3,2-c]pyridin-6-ylamino)phenyl)(pyrrolidin-1-yl)methanone]
19	COc1ccc(Nc2cc3[nH]c(-c4cn[nH]c4)cc3cn2)c(OC)c1 [Example 160, N-(2,4-Dimethoxyphenyl)-2-(1H-pyrazol-4-yl)-1H-pyrrolo[3,2-c]pyridin-6-amine]
97	CN(C)C(=O)c1ccc(Nc2cc3c(cn2)c(Cl)c(-c2cnn(C)c2)n3CC2CCCC2)c(Cl)c1 [Example 191, 3-Chloro-4-(3-chloro-1-(cyclopentylmethyl)-2-(1-methyl-1H-pyrazol-4-yl)-1H-pyrrolo[3,2-c]pyridin-6-ylamino)-N,N-dimethylbenzamide]
7	COC(=O)n1c(-c2cnn(C)c2)cc2cnc(Nc3ccc(-c4cnc(C)n4C)cc3Cl)cc21 [Example 86]
24	Cn1cc(-c2cc3cnc(Nc4ccc(S(C)(=O)=O)cc4Cl)cc3[nH]2)cn1 [Example 131, N-(2-Chloro-4-(methylsulfonyl)phenyl)-2-(1-methyl-1H-pyrazol-4-yl)-1H-pyrrolo[3,2-c]pyridin-6-amine]
5	Cn1cncc1-c1ccc(Nc2cc3[nH]c(-c4cnco4)cc3cn2)c(Cl)c1 [Example 185, N-(2-Chloro-4-(1-methyl-1H-imidazol-5-yl)phenyl)-2-(oxazol-5-yl)-1H-pyrrolo[3,2-c]pyridin-6-amine]
43	COc1cc(CN)ccc1Nc1cc2[nH]c(-c3cnn(C)c3)cc2cn1 [Example 140, N-(4-(Aminomethyl)-2-methoxyphenyl)-2-(1-methyl-1H-pyrazol-4-yl)-1H-pyrrolo[3,2-c]pyridin-6-amine]
7	COc1cc(C(=O)N2CC(OC)C2)ccc1Nc1cc2[nH]c(-c3cnn(C)c3)cc2cn1 [Example 120, (3-Methoxy-4-(2-(1-methyl-1H-pyrazol-4-yl)-1H-pyrrolo[3,2-c]pyridin-6-ylamino)phenyl)(3-methoxyazetidin-1-yl)methanone]
21	COc1ncccc1Nc1cc2[nH]c(-c3cnn(C)c3)cc2cn1 [Example 112, N-(2-Methoxypyridin-3-yl)-2-(1-methyl-1H-pyrazol-4-yl)-1H-pyrrolo[3,2-c]pyridin-6-amine]
11	CCN(C)C(=O)c1ccc(Nc2cc3[nH]c(-c4cnn(C)c4)cc3cn2)c(Cl)c1 [Example 144, 3-Chloro-N-ethyl-N-methyl-4-(2-(1-methyl-1H-pyrazol-4-yl)-1H-pyrrolo[3,2-c]pyridin-6-ylamino)benzamide]
83	COCCn1c(-c2cnn(C)c2)cc2cnc(Nc3ccc(-c4cnc(C)n4C)cc3Cl)cc21 [Example 104]
5	Cn1cc(-c2cc3cnc(Nc4ccc(-c5cncn5C)cc4Cl)cc3n2C(=O)OC2CCC2)cn1 [Example 82]
43	Cc1ccc(-n2c(-c3cnn(C)c3)cc3cnc(Nc4ccc(C(=O)N(C)C)cc4Cl)cc32)nc1 [Example 92]
287	CC(C)OC(=O)n1c(-c2cnn(C)c2)cc2cnc(Nc3cc(-c4cnn(C)c4)ccc3Cl)cc21 [Example 89]
22	Cn1cc(-c2cc3cnc(Nc4ccc(-c5ccnn5C)cc4Cl)cc3[nH]2)cn1 [Example 149, N-(2-Chloro-4-(1-methyl-1H-pyrazol-5-yl)phenyl)-2-(1-methyl-1H-pyrazol-4-yl)-1H-pyrrolo[3,2-c]pyridin-6-amine]
21	Cn1cc(-c2cc3cnc(Nc4ccc(C(=O)N5CC(F)(F)C5)cc4Cl)cc3[nH]2)cn1 [Example 153, (3-Chloro-4-((2-(1-methyl-1H-pyrazol-4-yl)-1H-pyrrolo[3,2-c]pyridin-6-yl)amino)phenyl)(3,3-difluoroazetidin-1-yl)methanone]
182	COc1cc(-c2ccc(Nc3cc4[nH]c(-c5cnn(C)c5)cc4cn3)c(Cl)c2)ccn1 [Example 151, N-(2-Chloro-4-(2-methoxypyridin-4-yl)phenyl)-2-(1-methyl-1H-pyrazol-4-yl)-1H-pyrrolo[3,2-c]pyridin-6-amine]
